ChEMBL document CHEMBL1629601, “In vitro susceptibility of field isolates of Leishmania donovani to Miltefosine and amphotericin B: correlation with sodium antimony gluconate susceptibility and implications for treatment in areas of endemicity” (2009)
≈ marks a conversion by molar mass, not a printed value. Each block holds one compound with its values, some of them ahead of it.

Key:
Format in all cases: functional
Leishmania donovani [1] = experiment: Antimicrobial activity against Leishmania donovani K133 promastigote; conditions: read-out: ED50 (the source's name)
Leishmania donovani [2] = experiment: Antimicrobial activity against Leishmania donovani K135 amastigote
Leishmania donovani [3] = experiment: Antimicrobial activity against Leishmania donovani K498 promastigote; conditions: read-out: ED50 (the source's name)
Leishmania donovani [4] = experiment: Antimicrobial activity against Leishmania donovani K498 amastigote
Leishmania donovani [5] = experiment: Antimicrobial activity against Leishmania donovani K481 amastigote
Leishmania donovani [6] = experiment: Antimicrobial activity against Leishmania donovani K481 promastigote; conditions: read-out: ED50 (the source's name)
Leishmania donovani [7] = experiment: Antimicrobial activity against Leishmania donovani K439 promastigote; conditions: read-out: ED50 (the source's name)
Leishmania donovani [8] = experiment: Antimicrobial activity against Leishmania donovani K439 amastigote
Leishmania donovani [9] = experiment: Antimicrobial activity against Leishmania donovani K429 promastigote; conditions: read-out: ED50 (the source's name)
Leishmania donovani [10] = experiment: Antimicrobial activity against Leishmania donovani K429 amastigote
Leishmania donovani [11] = experiment: Antimicrobial activity against Leishmania donovani K417 amastigote
Leishmania donovani [12] = experiment: Antimicrobial activity against Leishmania donovani K417 promastigote; conditions: read-out: ED50 (the source's name)
Leishmania donovani [13] = experiment: Antimicrobial activity against Leishmania donovani K251 promastigote; conditions: read-out: ED50 (the source's name)
Leishmania donovani [14] = experiment: Antimicrobial activity against Leishmania donovani K192 promastigote; conditions: read-out: ED50 (the source's name)
Leishmania donovani [15] = experiment: Antimicrobial activity against Leishmania donovani K251 amastigote
Leishmania donovani [16] = experiment: Antimicrobial activity against Leishmania donovani K192 amastigote
Leishmania donovani [17] = experiment: Antimicrobial activity against Leishmania donovani K149 promastigote; conditions: read-out: ED50 (the source's name)
Leishmania donovani [18] = experiment: Antimicrobial activity against Leishmania donovani K131 promastigote; conditions: read-out: ED50 (the source's name)
Leishmania donovani [19] = experiment: Antimicrobial activity against Leishmania donovani K149 amastigote
Leishmania donovani [20] = experiment: Antimicrobial activity against Leishmania donovani K59 promastigote; conditions: read-out: ED50 (the source's name)
Leishmania donovani [21] = experiment: Antimicrobial activity against Leishmania donovani K131 amastigote
Leishmania donovani [22] = experiment: Antimicrobial activity against Leishmania donovani K59 amastigote
Leishmania donovani [23] = experiment: Antimicrobial activity against Leishmania donovani LdAG83 amastigote
Leishmania donovani [24] = experiment: Antimicrobial activity against Leishmania donovani LdAG83 promastigote; conditions: read-out: ED50 (the source's name)
Leishmania donovani [25] = experiment: Antimicrobial activity against Leishmania donovani K516 promastigote; conditions: read-out: ED50 (the source's name)
Leishmania donovani [26] = experiment: Antimicrobial activity against Leishmania donovani K516 amastigote
Leishmania donovani [27] = experiment: Antimicrobial activity against Leishmania donovani K509 amastigote
Leishmania donovani [28] = experiment: Antimicrobial activity against Leishmania donovani K80 amastigote
Leishmania donovani [29] = experiment: Antimicrobial activity against Leishmania donovani K80 promastigote; conditions: read-out: ED50 (the source's name)
Leishmania donovani [30] = experiment: Antimicrobial activity against Leishmania donovani K111 amastigote
Leishmania donovani [31] = experiment: Antimicrobial activity against Leishmania donovani K111 promastigote; conditions: read-out: ED50 (the source's name)
Leishmania donovani [32] = experiment: Antimicrobial activity against Leishmania donovani K132 amastigote
Leishmania donovani [33] = experiment: Antimicrobial activity against Leishmania donovani K132 promastigote; conditions: read-out: ED50 (the source's name)
Leishmania donovani [34] = experiment: Antimicrobial activity against Leishmania donovani K133 amastigote
Leishmania donovani [35] = experiment: Antimicrobial activity against Leishmania donovani K135 promastigote; conditions: read-out: ED50 (the source's name)
Leishmania donovani [36] = experiment: Antimicrobial activity against Leishmania donovani K216 amastigote
Leishmania donovani [37] = experiment: Antimicrobial activity against Leishmania donovani K216 promastigote; conditions: read-out: ED50 (the source's name)
Leishmania donovani [38] = experiment: Antimicrobial activity against Leishmania donovani K435 amastigote
Leishmania donovani [39] = experiment: Antimicrobial activity against Leishmania donovani K435 promastigote; conditions: read-out: ED50 (the source's name)
[40] = read-out: ED50 (the source's name)

EC50 (Leishmania donovani [1]): 0.65 µg/mL (≈ 0.703 µM)
EC50 (Leishmania donovani [2]; [40]): 0.25 µg/mL (≈ 0.271 µM)
EC50 (Leishmania donovani [3]): 1.16 µg/mL (≈ 1.26 µM)
EC50 (Leishmania donovani [4]; [40]): 0.54 µg/mL (≈ 0.584 µM)
EC50 (Leishmania donovani [5]; [40]): 0.55 µg/mL (≈ 0.595 µM)
EC50 (Leishmania donovani [6]): 0.69 µg/mL (≈ 0.747 µM)
EC50 (Leishmania donovani [7]): 1.62 µg/mL (≈ 1.75 µM)
EC50 (Leishmania donovani [8]; [40]): 0.77 µg/mL (≈ 0.833 µM)
EC50 (Leishmania donovani [9]): 1.34 µg/mL (≈ 1.45 µM)
EC50 (Leishmania donovani [10]; [40]): 0.37 µg/mL (≈ 0.4 µM)
EC50 (Leishmania donovani [11]; [40]): 0.44 µg/mL (≈ 0.476 µM)
EC50 (Leishmania donovani [12]): 0.69 µg/mL (≈ 0.747 µM)
EC50 (Leishmania donovani [13]): 1.42 µg/mL (≈ 1.54 µM)
EC50 (Leishmania donovani [14]): 0.78 µg/mL (≈ 0.844 µM)
EC50 (Leishmania donovani [15]; [40]): 0.55 µg/mL (≈ 0.595 µM)
EC50 (Leishmania donovani [16]; [40]): 0.67 µg/mL (≈ 0.725 µM)
EC50 (Leishmania donovani [17]): 1.46 µg/mL (≈ 1.58 µM)
EC50 (Leishmania donovani [18]): 0.43 µg/mL (≈ 0.465 µM)
EC50 (Leishmania donovani [19]; [40]): 0.28 µg/mL (≈ 0.303 µM)
EC50 (Leishmania donovani [20]): 0.5 µg/mL (≈ 0.541 µM)
EC50 (Leishmania donovani [21]; [40]): 0.35 µg/mL (≈ 0.379 µM)
EC50 (Leishmania donovani [22]; [40]): 0.18 µg/mL (≈ 0.195 µM)
EC50 (Leishmania donovani [23]; [40]): 0.017 µg/mL (≈ 0.0184 µM)
EC50 (Leishmania donovani [24]): 0.023 µg/mL (≈ 0.0249 µM)
EC50 (Leishmania donovani [25]): 1.26 µg/mL (≈ 1.36 µM)
EC50 (Leishmania donovani [26]; [40]): 0.62 µg/mL (≈ 0.671 µM)
EC50 (Leishmania donovani [27]; [40]): 0.65 µg/mL (≈ 0.703 µM)
EC50 (Leishmania donovani [28]; [40]): 0.18 µg/mL (≈ 0.195 µM)
EC50 (Leishmania donovani [29]): 0.5 µg/mL (≈ 0.541 µM)
EC50 (Leishmania donovani [30]; [40]): 0.2 µg/mL (≈ 0.216 µM)
EC50 (Leishmania donovani [31]): 1.02 µg/mL (≈ 1.1 µM)
EC50 (Leishmania donovani [32]; [40]): 0.22 µg/mL (≈ 0.238 µM)
EC50 (Leishmania donovani [33]): 1.22 µg/mL (≈ 1.32 µM)
EC50 (Leishmania donovani [34]; [40]): 0.21 µg/mL (≈ 0.227 µM)
EC50 (Leishmania donovani [35]): 0.31 µg/mL (≈ 0.335 µM)
EC50 (Leishmania donovani [36]; [40]): 0.25 µg/mL (≈ 0.271 µM)
EC50 (Leishmania donovani [37]): 0.52 µg/mL (≈ 0.563 µM)
EC50 (Leishmania donovani [38]; [40]): 0.17 µg/mL (≈ 0.184 µM)
EC50 (Leishmania donovani [39]): 0.57 µg/mL (≈ 0.617 µM)
Compound: C[C@@H]1[C@H](O)[C@@H](C)/C=C/C=C/C=C/C=C/C=C/C=C/C=C/[C@H](O[C@@H]2O[C@H](C)[C@@H](O)[C@H](N)[C@@H]2O)C[C@@H]2O[C@](O)(C[C@@H](O)C[C@@H](O)[C@H](O)CC[C@@H](O)C[C@@H](O)CC(=O)O[C@H]1C)C[C@H](O)[C@H]2C(=O)O [AMPHOTERICIN B]

Compound: D-gluconic acid 2,4:2',4'-O-[oxybis(oxidostibylidyne)]bis-trisodium salt nonahydrate
ED50 (Leishmania donovani [2]): 4.22 µg/mL
ED50 (Leishmania donovani [4]): 15.8 µg/mL
ED50 (Leishmania donovani [5]): 17.5 µg/mL
ED50 (Leishmania donovani [8]): 12.9 µg/mL
ED50 (Leishmania donovani [10]): 13.8 µg/mL
ED50 (Leishmania donovani [11]): 14.7 µg/mL
ED50 (Leishmania donovani [15]): 11.8 µg/mL
ED50 (Leishmania donovani [16]): 20.3 µg/mL
ED50 (Leishmania donovani [19]): 15.7 µg/mL
ED50 (Leishmania donovani [21]): 19.4 µg/mL
ED50 (Leishmania donovani [22]): 14.7 µg/mL
ED50 (Leishmania donovani [23]): 2.06 µg/mL
ED50 (Leishmania donovani [26]): 16.5 µg/mL
ED50 (Leishmania donovani [27]): 16.8 µg/mL
ED50 (Leishmania donovani [28]): 10.4 µg/mL
ED50 (Leishmania donovani [30]): 5.63 µg/mL
ED50 (Leishmania donovani [32]): 3.95 µg/mL
ED50 (Leishmania donovani [34]): 3.45 µg/mL
ED50 (Leishmania donovani [36]): 2.14 µg/mL
ED50 (Leishmania donovani [38]): 11.8 µg/mL
